The source of these data is patent US8163479B2, “Specific substrates for O6-alkylguanine-DNA alkyltransferase” (Ecole Polytechnique Federale de Lausanne, priority 2004, dated 2012).

Changes are numbered by the printed parent chain. Residues, ends and D or L forms follow the SMILES beside them. *: point of attachment. X1 = CN(CCCC(=O)NCc1ccc(COc2nc(N)nc3[nH]c(CCCNC(=O)CN4C(=O)C[C@H](*)C4=O)nc23)cc1)C(=O)c1ccccc1-c1c2ccc(=N)c(S(=O)(=O)O)c-2oc2c(S(=O)(=O)O)c(N)ccc12

One data set has as its target T1, AGTM (AGT mutant) (Homo sapiens, UniProt P16455, A127T/C150N/C62A/G131K/G132T/K125A/M134L/N157G/Q115S/Q116H/R128A/R135S/S151I/S152N/S159E).
T1 construct: a truncation after codon 182 into the mutant AGT gene; GST (N); made in house; host or cells: E. coli BL21
T1 sequence (P16455 1-182 C62A/Q115S/Q116H/K125A/A127T/R128A/G131K/G132T/M134L/R135S/C150N/S151I/S152N/N157G/S159E): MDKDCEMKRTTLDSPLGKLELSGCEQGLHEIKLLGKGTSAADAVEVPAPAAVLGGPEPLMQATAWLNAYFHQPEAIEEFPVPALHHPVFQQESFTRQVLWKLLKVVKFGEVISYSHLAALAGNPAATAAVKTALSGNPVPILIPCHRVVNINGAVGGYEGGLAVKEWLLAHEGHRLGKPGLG
Description: Fluorescence-appearance assay and reactivity comparisons. It is filed as biochemical. The conditions noted are these: for reaction rate relative to the compound unsubstituted at C^8/N^9 / reaction rate relative to the corresponding N^9-substituted compound: AGTM; for reaction rate relative to the compound unsubstituted at C^8/N^9: comparator BG-TMR, BG-Atto488 or BG-FL; for reaction rate relative to the corresponding N^9-substituted compound: comparator compound 35, 27 or 29. The source says:
A second AGT mutant (“AGTM”) containing the mutations Cys62Ala, Gln115Ser, Gln116His, Lys125Ala, Ala127Thr, Arg128Ala, Gly131Lys, Gly132Thr, Met134Leu, Arg135Ser, Cys150Asn, Ser15111e, Ser152Asn, Asn157Gly, Ser159G1u, and truncation at 182 is derived from the mentioned above AGT mutant by subsequent introduction of further mutations and a truncation after codon 182 into the mutant AGT gene. Subsequent PCR amplifications gives rise to the further mutated gene that is subcloned into pGEX2T as described for the first mutant. The GST-fusion protein is expressed and purified as well.
In a further assay, purified protein of AGT mutants AGTM and AGT21 (Example 47) at a protein concentration of 10 μM are incubated with 100 nM N-[4-(2-Amino-9-(3-QSY9-aminopropyl)-purin-6-yloxymethyl)-benzyl]-tetramethylrhodamine-5(6)-carboxamide (35, N^9-QSY9-BG-TMR, Example 19) in a buffer containing 100 mM NaCl, 50 mM Tris, pH 8.0, 0.1% Tween, 1 mM DTT, at room temperature. […]
(§1) Further reactivity comparisons gave the following results: […]

The target of another data set is T2, AGT21 (AGT mutant) (Homo sapiens, UniProt P16455, A127T/C150N/C62A/K125A/N157G/Q115S/Q116H/R128A/R135S/S151I/S152N/S159E).
T2 construct: and truncation at 182 is prepared according to the same method; GST (N); made in house; host or cells: E. coli BL21
T2 sequence (P16455 1-182 C62A/Q115S/Q116H/K125A/A127T/R128A/R135S/C150N/S151I/S152N/N157G/S159E): T1 sequence (P16455 1-182 C62A/Q115S/Q116H/K125A/A127T/R128A/G131K/G132T/M134L/R135S/C150N/S151I/S152N/N157G/S159E) with K131G, T132G, L134M
The description is as above. The conditions noted are these: for reaction rate relative to the compound unsubstituted at C^8/N^9 / reaction rate relative to the corresponding N^9-substituted compound: AGT21; for reaction rate relative to the compound unsubstituted at C^8/N^9: comparator BG-TMR, BG-Atto488 or BG-FL; for reaction rate relative to the corresponding N^9-substituted compound: comparator compound 35, 27 or 29. Type of data set: biochemical. The method, then:
A third AGT mutant (“AGT21”) related to AGTM and containing the mutations Cys62Ala, Gln115Ser, Gln116His, Lys125Ala, Ala127Thr, Arg128Ala, Arg135Ser, Cys150Asn, Ser15111e, Ser152Asn, Asn157Gly, Ser159G1u, and truncation at 182 is prepared according to the same method.
In a further assay, purified protein of AGT mutants AGTM and AGT21 (Example 47) at a protein concentration of 10 μM are incubated with 100 nM N-[4-(2-Amino-9-(3-QSY9-aminopropyl)-purin-6-yloxymethyl)-benzyl]-tetramethylrhodamine-5(6)-carboxamide (35, N^9-QSY9-BG-TMR, Example 19) in a buffer containing 100 mM NaCl, 50 mM Tris, pH 8.0, 0.1% Tween, 1 mM DTT, at room temperature. The fluorescence intensity (531 nm excitation/595 nm emission) is followed using a Victor2 microplate reader (Perkin Elmer).
as §1

Data set [1] has as its target T3, AGT26-CaaX fusion protein in CHO cells deficient in endogenous wildtype AGT (Homo sapiens, UniProt P16455, A127T/C150S/C62A/G131K/G132T/K125A/M134L/N157G/R128A/R135S/S159E).
T3 construct: and truncation at 182 is also prepared according to the same method; expressed in transfected cells
T3 sequence (P16455 1-182 C62A/K125A/A127T/R128A/G131K/G132T/M134L/R135S/C150S/N157G/S159E): T1 sequence (P16455 1-182 C62A/Q115S/Q116H/K125A/A127T/R128A/G131K/G132T/M134L/R135S/C150N/S151I/S152N/N157G/S159E) with S115Q, H116Q, N150S, I151S, N152S
It is filed as cell-based. Here is the method:
A fourth AGT mutant (“AGT26”) related to AGTM and containing the mutations Cys62Ala, Lys125Ala, Ala127Thr, Arg128Ala, Gly131Lys, Gly132Thr, Met134Leu, Arg135Ser, Cys150Ser, Asn157Gly, Ser159G1u, and truncation at 182 is also prepared according to the same method.
A vector for a fusion of AGT26 and the CaaX-farnesylation signal is transfected into CHO cells deficient in endogenous wildtype AGT. Stable transfectants are selected under geneticine treatment. For that purpose the gene of AGT26 is cloned into pCMV-Script (Stratagene) followed on its C-terminus by the CaaX-box sequence encoded in the pECP-F (Clontech). The final protein sequence (position 690-1271) yields a single polypeptide with 194 amino acids. […] All imaging is done with an inverted Zeiss fluorescence microscope Axiovert 40 CFL with filter sets for tetramethylrhodamine and for fluorescein.

In the next data set the target is T4, wild type hAGT (Homo sapiens, UniProt P16455).
T4 sequence (P16455 1-207): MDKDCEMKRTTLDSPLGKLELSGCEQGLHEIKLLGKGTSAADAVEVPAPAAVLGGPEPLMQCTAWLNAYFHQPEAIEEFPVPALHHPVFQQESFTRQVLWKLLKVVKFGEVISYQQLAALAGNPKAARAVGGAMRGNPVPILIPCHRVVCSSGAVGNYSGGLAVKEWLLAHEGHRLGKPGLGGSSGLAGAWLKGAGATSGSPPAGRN
Conditions: known values; cited from earlier work.

[2] abbreviates: fluorescence 490 nm excitation / 535 nm emission.
The mark [3] stands for this setting: 10 μM protein, 100 nM substrate, over 1 hour at 25° C.

Take “N-[4-(2-Amino-8-(3-QSY9-aminopropyl)-9H-purin-6-yloxymethyl)-benzyl]-tetramethylrhodamine-5(6)-carboxamide [compound 48]”: on AGTM (AGT mutant), the “reaction rate relative to the compound unsubstituted at C^8/N^9” value is recorded as “two times faster” and the “reaction rate relative to the corresponding N^9-substituted compound” value is reported as “at least ten times faster”. Further, at AGT21 (AGT mutant), the “reaction rate relative to the compound unsubstituted at C^8/N^9” value was “two times faster” and the “reaction rate relative to the corresponding N^9-substituted compound” value is recorded as “at least four times faster”.

As for “N-[4-(2-Amino-8-(3-(4-[4-dimethylamino-phenyl]-azo-benzoyl)-amino-propyl)-9H-purin-6-yloxymethyl)-benzyl]-fluoresceine-5(6)-carboxamide [compound 44]”, the “reaction rate relative to the compound unsubstituted at C^8/N^9” value at AGTM (AGT mutant) and on AGT21 (AGT mutant) was “two times faster” in each case. Also, the entries for the “reaction rate relative to the corresponding N^9-substituted compound” value at AGTM (AGT mutant) and at AGT21 (AGT mutant) were “at least ten times faster” and “at least four times faster”, respectively.

Regarding “O^6-tetramethylrhodamine-benzylguanine [BG-TMR, reference compound]”, the “labeling of cells (fluorescence microscopy)” value in data set [1] (5 μM, 30 min, CHO cells with AGT26-CaaX) is “clear signal at the cell membrane”.

Take `CN(CCCC(=O)NCc1ccc(COc2nc(N)nc3[nH]c(CCCNC(=O)c4ccc(/N=N/c5ccc(N(C)C)cc5)cc4)nc23)cc1)C(=O)c1ccccc1-c1c2ccc(=N)c(S(=O)(=O)O)c-2oc2c(S(=O)(=O)O)c(N)ccc12` [compound 45, N-[4-(2-Amino-8-(3-(4-[4-dimethylamino-phenyl]-azo-benzoyl)-aminopropyl)-9H-purin-6-yloxymethyl)-benzyl]-ATTO488-amide]: at AGTM (AGT mutant), the “reaction rate relative to the compound unsubstituted at C^8/N^9” value is listed as “three times faster” and the “reaction rate relative to the corresponding N^9-substituted compound” value is listed as “at least fifteen times faster”. In addition, at AGTM (AGT mutant) (setting [2]), the “increased reactivity compared to BG-Atto488” value came to 3 fold. On AGT21 (AGT mutant), the “reaction rate relative to the compound unsubstituted at C^8/N^9” value is reported as “two times faster” and the “reaction rate relative to the corresponding N^9-substituted compound” value is “at least four times faster”. Besides, on AGT21 (AGT mutant) (setting [2]), the “increase in reactivity compared to BG-Atto488” value is “twofold”.

`Nc1nc(OCc2ccccc2)c2ncn(C3C[C@H](O)[C@@H](CO)O3)c2n1` (stereo partly shown) [N^9-desoxyribosyl-O^6-benzylguanine]: the “rate constant of the reaction with wild type hAGT” value on wild type hAGT is given as 340 s^−1M^−1.

Regarding `CN(CCCC(=O)NCc1ccc(COc2nc(N)nc3[nH]c(CCCNC(=O)CN4C(=O)C[C@H](SC[C@H](NC(=O)[C@H](CCCNC(=N)N)NC(=O)[C@H](CCCNC(=N)N)NC(=O)[C@H](CCCNC(=N)N)NC(=O)[C@H](CCCNC(=N)N)NC(=O)[C@H](CCCNC(=N)N)NC(=O)[C@H](CCCNC(=N)N)NC(=O)[C@H](CCCNC(=N)N)NC(=O)[C@H](CCCNC(=N)N)NC(=O)[C@H](CCCNC(=N)N)NC(=O)[C@@H](N)Cc5ccc(O)cc5)C(=O)O)C4=O)nc23)cc1)C(=O)c1ccccc1-c1c2ccc(=N)c(S(=O)(=O)O)c-2oc2c(S(=O)(=O)O)c(N)ccc12` [compound 60, Conjugate O^6-ATT0488-C^8-TyrArg9Cys] (H-YRRRRRRRRRC(X1)-OH; N-terminus and C-terminus assumed), the cell membrane permeability result in data set [1] is “increased permeability”.

For the molecule “N-[4-(2-Amino-9-(3-QSY9-aminopropyl)-purin-6-yloxymethyl)-benzyl]-tetramethylrhodamine-5(6)-carboxamide [compound 35]”, the “increase of tetramethylrhodamine fluorescence” value on AGTM (AGT mutant) (setting [3]) was “less than five percent”; at AGT21 (AGT mutant) (setting [3]), “about 80%”.
